In paper PMC11982498 (Redox Biology, 2025):

Key:
BCL-2 promoter i-motif = assay: CD melting experiment, BCL-2 i-motif; assay type: binding; details: BPES buffer pH 5.5; 20 equivalents (20 μM) compound
Protocol: CD-melting experiment was carried out following a published method without significant modification. BCL-2 promoter i-motif and G-quadruplex structures at a concentration of 5 μM were annealed in buffer at 95 °C for 10 min, and then cooled to room temperature. The annealed samples were incubated with B14 for 6 h, and then molar ellipticity at 287 nm for i-motif structure or 260 nm for G-quadruplex structure, where the CD value was the highest in our experiment, was measured over a temperature range of 20–90 °C at a heating rate of 0.5 °C/min. Tm values were determined and calculated through nonlinear regression curve fitting with software GraphPad Prism 9.0. (GraphPad Software Inc., California, USA).
Figure S6. CD melting experiments were performed to examine the effects of B14 and A22 on BCL-2 promoter i-motif and G-quadruplex. (A-H) CD melting experiments were performed for BCL-2 promoter i-motif or G-quadruplex in the absence or presence of B14 (2, 5, 20 equivalents) and A22 (20 equivalents). The oligonucleotide for BCL-2 i-motif was annealed in 1 X BPES buffer at pH 5.5, while the oligonucleotide for BCL-2 G-quadruplex was annealed in 20 mM Tris-HCl buffer with 20 mM NaCl at pH 7.4. The ΔTm values for the effects of B14 and A22 on BCL-2 promoter i-motif were determined to be 11.26 °C and 11.82 °C, respectively. […]

[1] = system: bio-ILPR (DNA, i motif) TGTCCCCACACCCCTGTCCCCACACCCCTGT; assay: SPR; details: K+ 100 mM; 20 mM MES, pH 5.5, 25 °C
[2] = system: bio-HRAS (DNA, i motif) CGCCCGTGCCCTGCGCCCGCAACCCGA; assay: SPR; details: K+ 100 mM; 20 mM MES, pH 5.5, 25 °C
APP/PS1 transgenic mice = assay: TEM of hippocampus microstructure; assay type: in vivo; details: vs model group
Source text: Five months old male APP/PS1 mice, weighing 25–33 g, were purchased from Guangdong Medical Laboratory Animal Center and housed in the Laboratory Animal Center of Sun Yat-sen University (Guangzhou, China) for experimentation. All procedures were approved by the Animal Care and Use Committee of Sun Yat-sen University and complied with legal requirements and national guidelines for the care and maintenance of laboratory animals (Approval No. SYSU-IACUC-2024-002032). The mice were housed in a specific pathogen-free environment with a controlled temperature of 22 ± 1 °C and a 12-h dark/light cycle. The mice were fed with a standard diet, and 30 mice were randomly divided into 6 groups (N = 5). Compound B14 was dissolved in saline and administered at doses of 10, 20, or 40 mg/kg. APP/PS1 male mice were grown until 6 months of age, and then injected intraperitoneally with compound B14 every other day for 60 days. Behavioral experiments were then conducted, and tissue specimens were collected for biochemical analysis.
After the behavioral tests, the mice were anesthetized and perfused with 0.1 M pre-cooled phosphate-buffered saline for 5 min, followed by 4 % pre-cooled paraformaldehyde until the mice were stiff. The hippocampi were then extracted and fixed in 3 % pre-cooled glutaraldehyde solution for 6 h, cut into 0.5–1 mm^3 blocks, and post-fixed in 1 % osmium tetroxide for 60 min. […]

[3] = system: BCL-2 (BCL-2 IM) (DNA, i motif) CAGCCCCGCTCCCGCCCCCTTCCTCCCGCGCCCGCCCCT; assay: CD melting, 287 nm; details: K+ 100 mM KCl plus potassium phosphate; BPES buffer, pH 5.5; 20 μM B14 (DNA 1, 2 or 5 μM, prints disagree)
[4] = system: BCL-2 gene transcription in SH-SY5Y cells; assay: Real-time RT-PCR in 25 μM Aβ1-42 cell model, BCL-2; assay type: cell-based, human
Protocol: SH-SY5Y cells were treated with or without B14, and total RNA was subsequently isolated and purified. Reverse transcription was performed using a cDNA synthesis kit. The relative transcription levels of the genes were evaluated through quantitative real-time PCR using the SYBR Green-based method, as described in the Supplementary Date. Details regarding the primer sequences and the raw data can be found in Table S7 and Table S8.
^a -∆∆Ct = -[(Ct value of genes in treated sample - Ct value of genes in control) - (Ct value of β-actin in treated sample - Ct value of β-actin in control)]. ^b F: The relative expression fold.
Experiment 2: The Ct values of BCL-2 and Bax in 25 μM Aβ1-42 model with different concentration of B14.
Total RNA was extracted from cells and mice liver tissue using RNAiso Plus (Takara, 9109, Japan). Following sample homogenization, chloroform was added, and the solution was allowed to have phase separation into an upper aqueous layer (containing RNA), an interphase, and a lower organic layer (containing DNA and proteins). RNA was precipitated from the aqueous phase using isopropanol, while DNA was precipitated from the aqueous-organic interphase using ethanol. Complementary DNA (cDNA) was synthesized using the One-Step RT-PCR Kit (Takara, Cat#639503, Japan).
Quantitative real-time polymerase chain reaction (qRT-PCR) was performed using the 2× RealStar SYBR Mixture (GenStar, Cat# A301-10, Guangzhou, China) on a LightCycler 480 II real-time PCR system (Roche, USA). Data were analyzed using the 2^−ΔΔCt method. Actin served as the internal control, and relative mRNA levels were normalized accordingly.

RET promoter i-motif = assay: TO displacement assay, RET i-motif; assay type: binding
Protocol: DNA oligonucleotides were diluted to 1 μM with 1 × PBES buffer at pH 5.5, annealed at 95 °C for 10 min, cooled to room temperature, and stored at 4 °C for future use. TO dye (1 μM) was added to the DNA solution followed with incubation for 1 h. The spectra of 100 μL mixture with addition of different equivalent compounds at 25 °C were recorded based on fluorescence emission (λex = 480 nm).
TO displacement ratio (%) = (F0 − FC) / (F0 − FB) * 100.
F0 and FC were the fluorescence intensity of TO at 536 nm with DNA before and after adding compounds, respectively. FB was the fluorescence intensity of TO at 536 nm with buffer only.

## O=C(CCN1CCOCC1)Nc1ccc2c(c1)c(=O)c1cc(NC(=O)CCN3CCOCC3)ccc1n2-c1ccc2occc2c1 [Compound B14]
BCL-2 promoter i-motif
  ΔTm (CD melting): 11.26 °C
[1]
  KD: > 50 µM
[2]
  KD: > 50 µM
APP/PS1 transgenic mice
  hippocampal ultrastructure (myelin, synapses, mitochondria; TEM): the degree of mitochondrial damage was much reduced
[3]
  ΔTm: 11.26 °C
[4]; 25 μM Aβ1-42 + 6.25 μM B14
  -∆∆Ct, BCL-2: -0.05
  F = 2^-∆∆Ct (relative expression fold), BCL-2: 1.04
[4]; 25 μM Aβ1-42 + 12.5 μM B14
  -∆∆Ct, BCL-2: -0.48
  F = 2^-∆∆Ct (relative expression fold), BCL-2: 1.40
[4]; 25 μM Aβ1-42 + 25 μM B14
  -∆∆Ct, BCL-2: -0.82
  F = 2^-∆∆Ct (relative expression fold), BCL-2: 1.76
RET promoter i-motif
  TO displacement ratio: 27%
